Measurements: patent US20220356174A1, “PYRIDIN-2-ONE COMPOUNDS USEFUL AS SMARCA2 ANTAGONISTS” (Epizyme, Inc., priority 2018, published 2022)

Target: FL-SMARCA4 (Homo sapiens, UniProt P51532)
Assay: SMARCA4 ATPase activity assay (ADP-Glo, chicken mononucleosome substrate)
Conditions: FL-SMARCA4 IC50

Sequence of FL-SMARCA4 (P51532 whole entry): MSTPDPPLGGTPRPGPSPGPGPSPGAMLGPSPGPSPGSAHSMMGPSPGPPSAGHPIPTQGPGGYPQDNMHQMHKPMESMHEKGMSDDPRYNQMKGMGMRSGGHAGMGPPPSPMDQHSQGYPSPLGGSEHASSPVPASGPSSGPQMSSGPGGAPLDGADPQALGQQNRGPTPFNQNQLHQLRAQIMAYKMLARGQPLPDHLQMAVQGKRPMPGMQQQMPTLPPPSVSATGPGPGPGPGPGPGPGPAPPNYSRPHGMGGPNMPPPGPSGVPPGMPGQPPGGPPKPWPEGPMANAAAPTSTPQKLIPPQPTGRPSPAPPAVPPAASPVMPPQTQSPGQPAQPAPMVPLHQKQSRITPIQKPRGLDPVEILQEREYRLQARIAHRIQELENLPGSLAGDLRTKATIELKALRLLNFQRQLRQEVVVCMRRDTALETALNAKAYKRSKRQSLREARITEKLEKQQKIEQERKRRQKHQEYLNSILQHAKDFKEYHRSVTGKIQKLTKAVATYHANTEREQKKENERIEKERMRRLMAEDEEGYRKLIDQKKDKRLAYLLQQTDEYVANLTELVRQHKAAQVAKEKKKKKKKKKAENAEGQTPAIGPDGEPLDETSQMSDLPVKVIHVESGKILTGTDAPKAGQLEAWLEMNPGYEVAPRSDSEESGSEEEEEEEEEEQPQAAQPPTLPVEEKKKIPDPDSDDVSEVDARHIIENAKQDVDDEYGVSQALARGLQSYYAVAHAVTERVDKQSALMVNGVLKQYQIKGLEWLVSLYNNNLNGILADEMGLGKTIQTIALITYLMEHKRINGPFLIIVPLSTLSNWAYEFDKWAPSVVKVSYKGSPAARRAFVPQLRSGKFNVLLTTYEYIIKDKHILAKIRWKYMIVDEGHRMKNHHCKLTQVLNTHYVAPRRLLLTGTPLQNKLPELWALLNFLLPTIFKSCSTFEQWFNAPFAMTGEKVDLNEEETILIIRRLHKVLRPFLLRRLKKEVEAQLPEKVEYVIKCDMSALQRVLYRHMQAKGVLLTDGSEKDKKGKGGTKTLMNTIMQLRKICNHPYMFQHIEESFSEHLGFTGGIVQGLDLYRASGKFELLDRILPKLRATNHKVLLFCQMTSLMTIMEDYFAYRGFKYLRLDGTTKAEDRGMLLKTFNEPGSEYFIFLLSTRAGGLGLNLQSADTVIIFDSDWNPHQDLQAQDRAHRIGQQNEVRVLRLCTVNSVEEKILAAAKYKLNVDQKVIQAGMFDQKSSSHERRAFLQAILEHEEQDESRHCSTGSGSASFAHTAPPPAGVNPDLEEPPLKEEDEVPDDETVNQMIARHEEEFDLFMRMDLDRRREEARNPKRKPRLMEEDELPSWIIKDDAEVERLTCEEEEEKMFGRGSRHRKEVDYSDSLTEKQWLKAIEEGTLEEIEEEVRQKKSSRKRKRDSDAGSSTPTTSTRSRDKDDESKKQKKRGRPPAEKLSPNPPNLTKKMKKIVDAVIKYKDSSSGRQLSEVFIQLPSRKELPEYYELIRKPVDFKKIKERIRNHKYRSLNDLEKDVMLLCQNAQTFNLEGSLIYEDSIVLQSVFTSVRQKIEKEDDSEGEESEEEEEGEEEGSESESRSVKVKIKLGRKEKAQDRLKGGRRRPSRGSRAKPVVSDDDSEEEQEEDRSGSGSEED

SMILES	IC50 [nM]
CNC(=O)c1ncc(C#Cc2cc(C(=O)Nc3cc(F)c(=O)n(CC(F)F)c3)sc2Cl)o1 [Compound 67d]	37.2
O=C(Nc1cc(F)c(=O)n(CC(F)F)c1)c1cc(C#CCn2cncn2)c(Cl)s1 [Compound 127d]	1450
O=C1C[C@H](C#Cc2cc(C(=O)Nc3cc(F)c(=O)n(CC(F)F)c3)sc2Cl)CCN1 [Compound 63d]	518
N#Cc1cc(C(=O)Nc2cc(F)c(=O)n(CC3(F)CC3)c2)sc1C(F)(F)F [Compound 85d]	596
N#Cc1cc(C(=O)Nc2cc(F)c(=O)n(CC(F)F)c2)sc1C1CC1 [Compound 87d]	4990
N#Cc1sc(C(=O)Nc2cc(F)c(=O)n(CC(F)F)c2)cc1C#C[C@H]1C[C@H](O)C1 [Compound 104d]	82
O=C(Nc1cc(F)c(=O)n(CC(F)F)c1)c1cc(C#CC2CCN(CC(F)(F)F)C2)c(Cl)s1 (centres unmarked) [Compound 110d]	4610
O=C(Nc1cc(F)c(=O)n(CC(F)F)c1)c1cc(C#CC2OCCCO2)c(Cl)s1 [Compound 101d]	285
O=C(Nc1cc(F)c(=O)n(CC(F)F)c1)c1cc(C#Cc2nncs2)c(Cl)s1 [Compound 130d]	132
N#Cc1cc(C(=O)Nc2cc(C(F)F)c(=O)n(CC(F)F)c2)sc1C(F)(F)F [Compound 76d]	10200
Cn1cc(C#Cc2cc(C(=O)Nc3cc(C#N)c(=O)n(CC(F)F)c3)sc2Cl)cn1 [Compound 93d]	147
N#Cc1cc(C(=O)Nc2cc(C(N)=O)c(=O)n(CC(F)F)c2)sc1C(F)(F)F [Compound 137d]	> 50000
O=C(Nc1cc(F)c(=O)n(CC(F)F)c1)c1cc(C#CC23CC(CO)(C2)C3)c(Cl)s1 [Compound 135d]	334
CNC(=O)c1cc(C#Cc2cc(C(=O)Nc3cc(F)c(=O)n(CC(F)F)c3)sc2Cl)on1 [Compound 55d]	246
CC(N)CC#Cc1cc(C(=O)Nc2cc(F)c(=O)n(CC(F)F)c2)sc1Cl (centres unmarked) [Compound 139d]	6700
O=C(Nc1cc(F)c(=O)n(CC(F)F)c1)c1cc(C#CC(F)(F)F)c(Cl)s1 [Compound 74d]	1010

Same assay, conditions: FL-SMARCA4 IC>50, Table 3c.2; ATPase assay, enzyme 5 nM, ATP 250 uM, chicken mononucleosome 10 nM, 30 min preincubation

SMILES	IC50 [nM]
CN(C)Cc1cccc(C#Cc2cc(C(=O)Nc3cc(F)c(=O)n(CC(F)F)c3)sc2Cl)c1 [Compound 128c]	823

Tested on: H358 cells
Assay: High-throughput proliferation (HTP) assay for H358 cells (CellTiter-Glo, 7 days)
Format: cell-based
Conditions: Homo sapiens, NCI-H358, 168 h, read-out: H358 SMARCA2 IC50
Procedure, shortened: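 Cells were plated at 1,000 cells/well in RPMI 1640 + 10% HI-FBS + 1% pen/strep on pre-dispensed compound and incubated 7 days at 37 °C, 5% CO2. Viability was read as ATP luminescence with CellTiter-Glo after 30 min at RT. DMSO served as 0% and 10 µM doxorubicin as 100% inhibition for EC50/IC50.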

SMILES	IC50 [nM]
CNC(=O)c1ncc(C#Cc2cc(C(=O)Nc3cc(F)c(=O)n(CC(F)F)c3)sc2Cl)o1 [Compound 67d]	> 10000
CN(C)Cc1cccc(C#Cc2cc(C(=O)Nc3cc(F)c(=O)n(CC(F)F)c3)sc2Cl)c1 [Compound 128c]	3890
O=C(Nc1cc(F)c(=O)n(CC(F)F)c1)c1cc(C#CCn2cncn2)c(Cl)s1 [Compound 127d]	> 10000
O=C1C[C@H](C#Cc2cc(C(=O)Nc3cc(F)c(=O)n(CC(F)F)c3)sc2Cl)CCN1 [Compound 63d]	> 10000
N#Cc1cc(C(=O)Nc2cc(F)c(=O)n(CC3(F)CC3)c2)sc1C(F)(F)F [Compound 85d]	> 10000
N#Cc1cc(C(=O)Nc2cc(F)c(=O)n(CC(F)F)c2)sc1C1CC1 [Compound 87d]	> 10000
N#Cc1sc(C(=O)Nc2cc(F)c(=O)n(CC(F)F)c2)cc1C#C[C@H]1C[C@H](O)C1 [Compound 104d]	> 10000
O=C(Nc1cc(F)c(=O)n(CC(F)F)c1)c1cc(C#CC2CCN(CC(F)(F)F)C2)c(Cl)s1 (centres unmarked) [Compound 110d]	> 10000
O=C(Nc1cc(F)c(=O)n(CC(F)F)c1)c1cc(C#CC2OCCCO2)c(Cl)s1 [Compound 101d]	> 10000
O=C(Nc1cc(F)c(=O)n(CC(F)F)c1)c1cc(C#Cc2nncs2)c(Cl)s1 [Compound 130d]	6750
N#Cc1cc(C(=O)Nc2cc(C(F)F)c(=O)n(CC(F)F)c2)sc1C(F)(F)F [Compound 76d]	> 10000
Cn1cc(C#Cc2cc(C(=O)Nc3cc(C#N)c(=O)n(CC(F)F)c3)sc2Cl)cn1 [Compound 93d]	> 10000
N#Cc1cc(C(=O)Nc2cc(C(N)=O)c(=O)n(CC(F)F)c2)sc1C(F)(F)F [Compound 137d]	> 10000
O=C(Nc1cc(F)c(=O)n(CC(F)F)c1)c1cc(C#CC23CC(CO)(C2)C3)c(Cl)s1 [Compound 135d]	> 10000
CNC(=O)c1cc(C#Cc2cc(C(=O)Nc3cc(F)c(=O)n(CC(F)F)c3)sc2Cl)on1 [Compound 55d]	> 10000
CC(N)CC#Cc1cc(C(=O)Nc2cc(F)c(=O)n(CC(F)F)c2)sc1Cl (centres unmarked) [Compound 139d]	> 10000
O=C(Nc1cc(F)c(=O)n(CC(F)F)c1)c1cc(C#CC(F)(F)F)c(Cl)s1 [Compound 74d]	2440

Target: T1, FL-SMARCA2 (full-length human SMARCA2 isoform 1) (Homo sapiens, UniProt P51531)
T1 construct: FLAG tag (YKDDDDK) (C); made in house; host or cells: Sf21 insect cells (baculovirus, pFastBacI)
Assay: SMARCA2 ATPase activity assay (ADP-Glo, chicken mononucleosome substrate)
Format: biochemical
Conditions: Table 3c.1; ATPase assay, enzyme 5 nM, ATP 250 uM, chicken mononucleosome 10 nM, 30 min preincubation

T1 sequence (P51531 with tags, fused parts or gaps): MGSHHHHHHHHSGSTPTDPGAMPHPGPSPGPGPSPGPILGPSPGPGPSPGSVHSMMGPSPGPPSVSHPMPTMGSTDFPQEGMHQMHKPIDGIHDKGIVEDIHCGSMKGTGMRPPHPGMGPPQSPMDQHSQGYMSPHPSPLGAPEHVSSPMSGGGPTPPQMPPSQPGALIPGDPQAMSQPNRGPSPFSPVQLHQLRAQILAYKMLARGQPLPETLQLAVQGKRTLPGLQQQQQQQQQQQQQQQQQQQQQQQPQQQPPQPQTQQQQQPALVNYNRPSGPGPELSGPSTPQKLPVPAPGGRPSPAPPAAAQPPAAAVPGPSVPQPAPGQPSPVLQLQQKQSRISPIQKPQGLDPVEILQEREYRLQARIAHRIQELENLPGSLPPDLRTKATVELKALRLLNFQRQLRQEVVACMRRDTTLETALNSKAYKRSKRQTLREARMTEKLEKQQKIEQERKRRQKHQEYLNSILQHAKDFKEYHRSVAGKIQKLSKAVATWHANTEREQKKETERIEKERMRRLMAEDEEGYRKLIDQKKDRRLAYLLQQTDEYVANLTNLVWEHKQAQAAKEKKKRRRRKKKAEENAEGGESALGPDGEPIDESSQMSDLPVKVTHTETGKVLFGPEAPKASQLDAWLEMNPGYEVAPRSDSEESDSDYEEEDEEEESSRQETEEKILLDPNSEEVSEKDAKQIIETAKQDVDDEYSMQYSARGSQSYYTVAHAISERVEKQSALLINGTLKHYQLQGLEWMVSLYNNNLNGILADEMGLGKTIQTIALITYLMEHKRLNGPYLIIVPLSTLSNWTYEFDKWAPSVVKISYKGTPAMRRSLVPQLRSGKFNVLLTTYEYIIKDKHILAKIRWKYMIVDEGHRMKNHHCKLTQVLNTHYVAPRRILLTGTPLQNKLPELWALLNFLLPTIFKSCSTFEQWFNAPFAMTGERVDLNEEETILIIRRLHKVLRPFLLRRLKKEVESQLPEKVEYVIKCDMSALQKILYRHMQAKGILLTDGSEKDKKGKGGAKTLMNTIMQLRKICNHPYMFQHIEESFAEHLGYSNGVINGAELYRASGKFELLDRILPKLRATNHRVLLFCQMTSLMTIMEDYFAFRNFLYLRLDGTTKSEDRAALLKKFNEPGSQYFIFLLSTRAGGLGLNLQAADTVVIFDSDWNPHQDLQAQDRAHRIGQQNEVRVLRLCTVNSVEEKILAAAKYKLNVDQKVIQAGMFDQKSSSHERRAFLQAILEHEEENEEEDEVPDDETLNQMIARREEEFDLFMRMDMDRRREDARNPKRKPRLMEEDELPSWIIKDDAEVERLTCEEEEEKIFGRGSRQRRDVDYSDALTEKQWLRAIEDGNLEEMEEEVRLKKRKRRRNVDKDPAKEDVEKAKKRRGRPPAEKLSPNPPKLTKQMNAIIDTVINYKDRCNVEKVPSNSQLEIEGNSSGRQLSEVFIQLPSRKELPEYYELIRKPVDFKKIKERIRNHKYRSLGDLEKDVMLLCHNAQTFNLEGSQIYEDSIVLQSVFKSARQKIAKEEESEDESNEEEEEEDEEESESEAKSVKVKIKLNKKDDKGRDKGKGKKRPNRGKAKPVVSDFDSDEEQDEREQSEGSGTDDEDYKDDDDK

SMILES	IC50 [nM]
CN(C)Cc1cccc(C#Cc2cc(C(=O)Nc3cc(F)c(=O)n(CC(F)F)c3)sc2Cl)c1 [Compound 128c]	211

Same assay, conditions: Table 3d.1; ATPase assay, enzyme 5 nM, ATP 250 uM, chicken mononucleosome 10 nM, 30 min preincubation; read-out: FL-SMARCA2 IC>50

SMILES	IC50 [nM]
CNC(=O)c1ncc(C#Cc2cc(C(=O)Nc3cc(F)c(=O)n(CC(F)F)c3)sc2Cl)o1 [Compound 67d]	14.6
O=C(Nc1cc(F)c(=O)n(CC(F)F)c1)c1cc(C#CCn2cncn2)c(Cl)s1 [Compound 127d]	586
O=C1C[C@H](C#Cc2cc(C(=O)Nc3cc(F)c(=O)n(CC(F)F)c3)sc2Cl)CCN1 [Compound 63d]	165
N#Cc1cc(C(=O)Nc2cc(F)c(=O)n(CC3(F)CC3)c2)sc1C(F)(F)F [Compound 85d]	104
N#Cc1cc(C(=O)Nc2cc(F)c(=O)n(CC(F)F)c2)sc1C1CC1 [Compound 87d]	978
N#Cc1sc(C(=O)Nc2cc(F)c(=O)n(CC(F)F)c2)cc1C#C[C@H]1C[C@H](O)C1 [Compound 104d]	30
O=C(Nc1cc(F)c(=O)n(CC(F)F)c1)c1cc(C#CC2CCN(CC(F)(F)F)C2)c(Cl)s1 (centres unmarked) [Compound 110d]	1470
O=C(Nc1cc(F)c(=O)n(CC(F)F)c1)c1cc(C#CC2OCCCO2)c(Cl)s1 [Compound 101d]	166
O=C(Nc1cc(F)c(=O)n(CC(F)F)c1)c1cc(C#Cc2nncs2)c(Cl)s1 [Compound 130d]	30.9
N#Cc1cc(C(=O)Nc2cc(C(F)F)c(=O)n(CC(F)F)c2)sc1C(F)(F)F [Compound 76d]	1310
Cn1cc(C#Cc2cc(C(=O)Nc3cc(C#N)c(=O)n(CC(F)F)c3)sc2Cl)cn1 [Compound 93d]	43.1
N#Cc1cc(C(=O)Nc2cc(C(N)=O)c(=O)n(CC(F)F)c2)sc1C(F)(F)F [Compound 137d]	> 50000
O=C(Nc1cc(F)c(=O)n(CC(F)F)c1)c1cc(C#CC23CC(CO)(C2)C3)c(Cl)s1 [Compound 135d]	160
CNC(=O)c1cc(C#Cc2cc(C(=O)Nc3cc(F)c(=O)n(CC(F)F)c3)sc2Cl)on1 [Compound 55d]	92.6
CC(N)CC#Cc1cc(C(=O)Nc2cc(F)c(=O)n(CC(F)F)c2)sc1Cl (centres unmarked) [Compound 139d]	3100
O=C(Nc1cc(F)c(=O)n(CC(F)F)c1)c1cc(C#CC(F)(F)F)c(Cl)s1 [Compound 74d]	462

Tested on: A549 cells
Assay: High-throughput proliferation (HTP) assay for A549 cells (CellTiter-Glo, 7 days)
Format: cell-based
Conditions: Homo sapiens, 168 h, read-out: A549 SMARCA2 IC50
Procedure, shortened: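 Seven-day growth of A549 (62.5 cells/well, F12K with 10% HI-FBS, 37° C.) with compound, read by CellTiter-Glo ATP luminescence. Percent inhibition scaled between DMSO wells and 10 μM Doxorubicin wells, then fitted for EC50 and IC50.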

SMILES	IC50 [nM]
CNC(=O)c1ncc(C#Cc2cc(C(=O)Nc3cc(F)c(=O)n(CC(F)F)c3)sc2Cl)o1 [Compound 67d]	2120
CN(C)Cc1cccc(C#Cc2cc(C(=O)Nc3cc(F)c(=O)n(CC(F)F)c3)sc2Cl)c1 [Compound 128c]	5130
O=C(Nc1cc(F)c(=O)n(CC(F)F)c1)c1cc(C#CCn2cncn2)c(Cl)s1 [Compound 127d]	> 10000
O=C1C[C@H](C#Cc2cc(C(=O)Nc3cc(F)c(=O)n(CC(F)F)c3)sc2Cl)CCN1 [Compound 63d]	> 10000
N#Cc1cc(C(=O)Nc2cc(F)c(=O)n(CC3(F)CC3)c2)sc1C(F)(F)F [Compound 85d]	4170
N#Cc1cc(C(=O)Nc2cc(F)c(=O)n(CC(F)F)c2)sc1C1CC1 [Compound 87d]	> 10000
N#Cc1sc(C(=O)Nc2cc(F)c(=O)n(CC(F)F)c2)cc1C#C[C@H]1C[C@H](O)C1 [Compound 104d]	4370
O=C(Nc1cc(F)c(=O)n(CC(F)F)c1)c1cc(C#CC2CCN(CC(F)(F)F)C2)c(Cl)s1 (centres unmarked) [Compound 110d]	> 10000
O=C(Nc1cc(F)c(=O)n(CC(F)F)c1)c1cc(C#CC2OCCCO2)c(Cl)s1 [Compound 101d]	3740
O=C(Nc1cc(F)c(=O)n(CC(F)F)c1)c1cc(C#Cc2nncs2)c(Cl)s1 [Compound 130d]	3370
N#Cc1cc(C(=O)Nc2cc(C(F)F)c(=O)n(CC(F)F)c2)sc1C(F)(F)F [Compound 76d]	> 10000
Cn1cc(C#Cc2cc(C(=O)Nc3cc(C#N)c(=O)n(CC(F)F)c3)sc2Cl)cn1 [Compound 93d]	3930
N#Cc1cc(C(=O)Nc2cc(C(N)=O)c(=O)n(CC(F)F)c2)sc1C(F)(F)F [Compound 137d]	> 10000
O=C(Nc1cc(F)c(=O)n(CC(F)F)c1)c1cc(C#CC23CC(CO)(C2)C3)c(Cl)s1 [Compound 135d]	2380
CNC(=O)c1cc(C#Cc2cc(C(=O)Nc3cc(F)c(=O)n(CC(F)F)c3)sc2Cl)on1 [Compound 55d]	> 10000
CC(N)CC#Cc1cc(C(=O)Nc2cc(F)c(=O)n(CC(F)F)c2)sc1Cl (centres unmarked) [Compound 139d]	> 10000
O=C(Nc1cc(F)c(=O)n(CC(F)F)c1)c1cc(C#CC(F)(F)F)c(Cl)s1 [Compound 74d]	1650
